Data as given in US4444981A, “10 Oxo-4,5-dihydro-10H-benzo 5,6 cycloheph[1,2-B]pyrryls” (Beecham Group Limited, priority 1979, dated 1984).

Tests used:
[1] = Cotton Pellet Granuloma test (anti-inflammatory activity); type: in vivo; conditions: * significantly active
Text: (§1) The compounds were examined for Anti-Inflammatory Activity in two conventional tests, the Cotton Pellet Granuloma test and the Carrageenin test.

[2] = Carrageenin test (anti-inflammatory activity); type: in vivo; conditions: * significantly active
Text: as §1

[3] = phenyl quinone writhing test (analgesic activity); type: in vivo
Text: The compounds were also examined for Analgesic Activity in the conventional phenyl quinone writhing test.

Structure (SMILES): Cc1ccc2c(c1)CCc1cc(CC(=O)O)n(C)c1C2=O [Example 1, 4,5-Dihydro-1,7-dimethyl-10H-10-oxo-benzo[5,6]cyclohepta[1,2-b]pyrrole-2-acetic acid]
- Cotton Pellet % Inhibition ([1]; 25 mg/kg): 34%
- Carrageenin % Inhibition ([2]; 5 mg/kg): 21%
- Carrageenin % Inhibition ([2]; 25 mg/kg): 44%
- ED50 [3]: 5.1 mg/kg
- TD50 (in vivo): 95 mg/kg

Structure (SMILES): Cn1c(CC(=O)O)cc2c1C(=O)c1ccccc1CC2 [Example 2, 4,5-Dihydro-10H-1-methyl-10-oxobenzo[5,6]-cyclohepta[1,2-b]pyrrole-2-aceticacid]
- Cotton Pellet % Inhibition ([1]; 10 mg/kg): 28%
- Carrageenin % Inhibition ([2]; 15 mg/kg): 25%
- Carrageenin % Inhibition ([2]; 45 mg/kg): 30%
- ED50 [3]: 2.4 mg/kg

Structure (SMILES): CC(=O)CCc1cc2c(n1C)C(=O)c1ccccc1CC2 [Example 4, 4-(4,5-Dihydro-10H-1-methyl-10-oxo-benzo[5,6]cyclohepta[1,2-b]-2-pyrryl)butan-2-one]
- Carrageenin % Inhibition ([2]; 15 mg/kg): 17%
- Carrageenin % Inhibition ([2]; 45 mg/kg): 20%

Structure (SMILES): CC(O)CCc1cc2c(n1C)C(=O)c1ccccc1CC2 (centres unmarked) [Example 5, 4-(4,5-Dihydro-10H-1-methyl-10-oxo-benzo[5,6]cyclohepta[1,2-b]-2-pyrryl)butan-2-ol]
- Carrageenin % Inhibition ([2]; 45 mg/kg): 25%

Structure (SMILES): CC(=O)OC(C)CCc1cc2c(n1C)C(=O)c1ccccc1CC2 (centres unmarked) [Example 6, 2-Acetoxy-4-(4,5-dihydro-10H-1-methyl-10-oxo-benzo[5,6]cyclohept[1,2-b]-2-pyrryl)butane]
- Carrageenin % Inhibition ([2]; 15 mg/kg): 17%
- Carrageenin % Inhibition ([2]; 45 mg/kg): 19%

Structure (SMILES): Cn1c(CC(=O)O)cc2c1C(=O)c1ccc(Cl)cc1CC2 [Example 7, 7-Chloro-4,5-dihydro-10H-1-methyl-10-oxobenzo[5,6]cyclohepta[1,2-b]pyrrole-2-acetic acid]
- Cotton Pellet % Inhibition ([1]; 25 mg/kg): 49%
- Carrageenin % Inhibition ([2]; 25 mg/kg): 25%

Structure (SMILES): Cn1c(CC(=O)O)cc2c1C(=O)c1ccc(F)cc1CC2 [Example 8, 4,5-Dihydro-7-fluoro-10H-1-methyl-10-oxobenzo[5,6]cyclohepta[1,2-b]pyrrole-2-acetic acid]
- Cotton Pellet % Inhibition ([1]; 10 mg/kg): 31%
